The target of one assay is human μ opioid receptor (Homo sapiens (Human), UniProt P35372). Put plainly: Functional activity ([35S]GTPγS binding). Type of assay: biochemical. The note with it: [35S]GTPγS 0.080 nM, CHO cell membranes, 60 min at 30° C., filtration. The method, then:
The [^35S]GTPγS assay measures the functional properties of a compound by quantifying the level of G-protein activation following agonist binding in studies using stably transfected cells, and is considered to be a measure of the efficacy of a compound. Membranes from CHO (Chinese Hamster Ovary) cells that stably expressed one type of the cloned human opioid receptor human were used in the experiments. In a final volume of 0.5 mL, 12 different concentrations of each test compound were incubated with 7.5 μg of CHO cell membranes that stably expressed the human p opioid receptor. The assay buffer consisted of 50 mM Tris-HCl, pH 7.4, 3 mM MgCl2, 0.2 mM EGTA, 3 μM GDP, and 100 mM NaCl. The final concentration of [35S]GTPγS was 0.080 nM. Nonspecific binding was measured by inclusion of 10 μM GTPγS. Binding was initiated by the addition of the membranes. After an incubation of 60 min at 30° C., the samples were filtered through Schleicher & Schuell No. 32 glass fiber filters. The filters were washed three times with cold 50 mM Tris-HCl, pH 7.5, and were counted in 2 mL of Ecoscint scintillation fluid.

The target in another assay is μ-receptor (Homo sapiens (Human), UniProt P35372). As to the kind of experiment: Receptor binding, competitive displacement of [3H]DAMGO. Particulars: 0.25 nM [3H]DAMGO, CHO cell membrane protein, 60 min at 25° C. Here is the method:
The Ki (binding affinity) for μ-receptor was determined with a previously described method using a competitive displacement assay (Neumeyer et al., J. Med. Chem., v. 46, p. 5162-5170, 2003). Membrane protein from CHO (Chinese Hamster Ovarian) cells that stably expressed one type of the cloned human opioid receptor were incubated with 12 different concentrations of the compound in the presence of 0.25 nM [3H]DAMGO, 0.2 nM [3H]naltrindole or 1 nM [3H]U69,593 in a final volume of 1 mL of 50 mM Tris-HCl, pH 7.5 at 25° C. Incubation times of 60 min were used for [3H]DAMGO and [3H]U69,593. Because of a slower association of [3H]naltrindole with the receptor, a 3 h incubation was used with this radioligand. Samples incubated with [3H]naltrindole also contained 10 mM MgCl2 and 0.5 mM phenylmethylsulfonyl fluoride. Nonspecific binding was measured by inclusion of 10 μM naloxone. The binding was terminated by filtering the samples through Schleicher & Schuell No. 32 glass fiber filters using a Brandel 48-well cell harvester. The filters were subsequently washed three times with 3 mL of cold 50 mM Tris-HCl, pH 7.5, and were counted in 2 mL Ecoscint A scintillation fluid. For [3H]naltrindole and [3H]U69,593 binding, the filters were soaked in 0.1% polyethylenimine for at least 60 min before use. IC50 values will be calculated by least squares fit to a logarithm-probit analysis. Ki values of unlabelled compounds were calculated from the equation Ki=(IC50)/1+S where S=(concentration of radioligand)/(Kd of radioligand) (Cheng and Prusoff, Biochemical Pharmacology, v. 22, p. 3099-3108, 1973).
On the technique in general: Loss of bound radioactivity is the signal in a displacement assay; it reports binding, not function.

Structures can show the parent of a compound that is named as a salt.

`COC1(c2cccc(C(N)=O)c2)C2CCCC1CN(CC1(F)CC1)C2` [Compound 40, 3-((1R,5S,9r)-3-((1-fluorocyclopropyl)methyl)-9-methoxy-3-azabicyclo[3.3.1]nonan-9-yl)benzamide hydrochloride] returned an EC50 at human μ opioid receptor of 10 to 75 nM. The Ki at μ-receptor is < 1 nM.

Consider `COC1(c2cccc(C(N)=O)c2)C2CCCC1CN(C1CCC1)C2` [Compound 42, 3-((1R,5S,9r)-3-cyclobutyl-9-methoxy-3-azabicyclo[3.3.1]nonan-9-yl)benzamide hydrochloride], for which, on human μ opioid receptor, the EC50 is < 10 nM. The Ki at μ-receptor was < 1 nM.

As for `COC1(c2cccc(C(N)=O)c2)C2CCCC1CN(C1CCOCC1)C2` [Compound 45, 3-((1R,5S,9r)-9-methoxy-3-(tetrahydro-2H-pyran-4-yl)-3-azabicyclo[3.3.1]nonan-9-yl)benzamide hydrochloride], at human μ opioid receptor, the EC50 lay in the range of 10 to 75 nM. On μ-receptor, the Ki was in the range of 1 to 5 nM.

In the case of `CCCN1CC2CCCC(C1)C2(OC)c1cccc(C(N)=O)c1` [Compound 47, 3-((1R,5S,9r)-9-methoxy-3-propyl-3-azabicyclo[3.3.1]nonan-9-yl)benzamide hydrochloride], the EC50 on human μ opioid receptor was < 10 nM. Moreover, the Ki at μ-receptor is < 1 nM.

As for `COC1(c2cccc(C(N)=O)c2O)C2CCCC1CN(C)C2` [Compound 49, 2-hydroxy-3-((1R,5S,9r)-9-methoxy-3-methyl-3-azabicyclo[3.3.1]nonan-9-yl)benzamide hydrochloride], the EC50 on human μ opioid receptor is < 10 nM. In addition, the Ki on μ-receptor was < 1 nM.

In the case of `COC1(c2cccc(C(N)=O)c2)C2CCCC1CN(C1COC1)C2` [Compound 50, 3-((1R,5S,9r)-9-methoxy-3-(oxetan-3-yl)-3-azabicyclo[3.3.1]nonan-9-yl)benzamide (S)-2-hydroxysuccinate], the EC50 at human μ opioid receptor is 10 to 75 nM. The compound also returned a Ki at μ-receptor of 1 to 5 nM.

The compound `COC1(c2cccc(C(N)=O)c2)C2CCCC1CN(CC1COC1)C2` [Compound 51, 3-((1R,5S,9r)-9-methoxy-3-(oxetan-3-ylmethyl)-3-azabicyclo[3.3.1]nonan-9-yl)benzamide (S)-2-hydroxysuccinate] returned an EC50 on human μ opioid receptor of 10 to 75 nM. Moreover, the Ki at μ-receptor was < 1 nM.

As to `COC1(c2ccnc(C(N)=O)c2F)C2CCCC1CN(C)C2` [Compound 53, 3-fluoro-4-((1R,5S,9r)-9-methoxy-3-methyl-3-azabicyclo[3.3.1]nonan-9-yl)picolinamide hydrochloride], on human μ opioid receptor, the EC50 is > 75 nM. For the same compound, on μ-receptor, the Ki was 1 to 5 nM.

Consider `Cl.[2H]C([2H])([2H])N1CC2CCCC(C1)C2(OC)c1cccc(C(N)=O)c1` [Compound 54, 3-((1R,5S,9r)-9-methoxy-3-(trideuteriomethyl)-3-azabicyclo[3.3.1]nonan-9-yl)benzamide hydrochloride], for which the EC50 at human μ opioid receptor is < 10 nM. In addition, the Ki at μ-receptor is < 1 nM.

With `COC1(c2ccnc(C(N)=O)c2)C2CCCC1CN(C1CCCC1)C2` [Compound 55, 4-((1R,5S,9r)-3-cyclopentyl-9-methoxy-3-azabicyclo[3.3.1]nonan-9-yl)picolinamide hydrochloride], on human μ opioid receptor, the EC50 is 10 to 75 nM. Also, the Ki on μ-receptor was < 1 nM.

Take `COC1(c2ccnc(C(N)=O)c2F)C2CCCC1CN(C1CC1)C2` [Compound 57, 4-((1R,5S,9r)-3-cyclopropyl-9-methoxy-3-azabicyclo[3.3.1]nonan-9-yl)-3-fluoropicolinamide hydrochloride]: the EC50 at human μ opioid receptor was > 75 nM. In addition, on μ-receptor, the Ki is > 5 nM.

As for `COC1(c2cccc(C(N)=O)c2)C2CCCC1CN(CC1(O)Cc3ccccc3C1)C2` [Compound 58, 3-((1R,5S,9r)-3-((2-hydroxy-2,3-dihydro-1H-inden-2-yl)methyl)-9-methoxy-3-azabicyclo[3.3.1]nonan-9-yl)benzamide hydrochloride], the EC50 at human μ opioid receptor is < 10 nM. Also, the Ki at μ-receptor was < 1 nM.

On to `COC1(c2cccc(C(N)=O)c2)C2CCCC1CN(Cc1nc3ccccc3[nH]1)C2` [Compound 64, 3-((1R,5S,9r)-3-((1H-benzo[d]imidazol-2-yl)methyl)-9-methoxy-3-azabicyclo[3.3.1]nonan-9-yl)benzamide hydrochloride], for which, at human μ opioid receptor, the EC50 is < 10 nM. Also, the Ki on μ-receptor is < 1 nM.

The compound `CCN1CC2CCCC(C1)C2(OC)c1ccnc(C(N)=O)c1` [Compound 66, 4-((1R,5S,9r)-3-ethyl-9-methoxy-3-azabicyclo[3.3.1]nonan-9-yl)picolinamide hydrochloride] had an EC50 on human μ opioid receptor of 10 to 75 nM. For the same compound, the Ki at μ-receptor fell in the range of 1 to 5 nM.

As to `COC1(c2ccnc(C(N)=O)c2)C2CCCC1CN(Cc1ccccn1)C2` [Compound 67, 4-((1R,5S,9r)-9-methoxy-3-(pyridin-2-ylmethyl)-3-azabicyclo[3.3.1]nonan-9-yl)picolinamide dihydrochloride], at human μ opioid receptor, the EC50 is 10 to 75 nM. For the same compound, the Ki on μ-receptor lay in the range of 1 to 5 nM.

Turning to `COC1(c2ccnc(C(N)=O)c2)C2CCCC1CN(Cc1cccnc1)C2` [Compound 68, 4-((1R,5S,9r)-9-methoxy-3-(pyridin-3-ylmethyl)-3-azabicyclo[3.3.1]nonan-9-yl)picolinamide dihydrochloride], at human μ opioid receptor, the EC50 lay within 10 to 75 nM. The Ki on μ-receptor is 1 to 5 nM.

As for `COC1(c2ccnc(C(N)=O)c2)C2CCCC1CN(Cc1ccncc1)C2` [Compound 69, 4-((1R,5S,9r)-9-methoxy-3-(pyridin-4-ylmethyl)-3-azabicyclo[3.3.1]nonan-9-yl)picolinamide hydrochloride], the EC50 on human μ opioid receptor is > 75 nM. Moreover, the Ki on μ-receptor was > 5 nM.

Turning to `COC1(c2ccc(C(N)=O)s2)C2CCCC1CN(C1CCOCC1)C2` [Compound 71, 5-((1R,5S,9r)-9-methoxy-3-(tetrahydro-2H-pyran-4-yl)-3-azabicyclo[3.3.1]nonan-9-yl)thiophene-2-carboxamide hydrochloride], at human μ opioid receptor, the EC50 was > 75 nM. On μ-receptor, the Ki was > 5 nM.

Regarding `COC1(c2ccnc(C(N)=O)c2)C2CCCC1CN(CC1(O)CC1)C2` [Compound 72, 4-((1R,5S,9r)-3-((1-hydroxycyclopropyl)methyl)-9-methoxy-3-azabicyclo[3.3.1]nonan-9-yl)picolinamide hydrochloride], at human μ opioid receptor, the EC50 is > 75 nM. The Ki at μ-receptor is 1 to 5 nM.

Regarding `COC1(c2ccnc(C(N)=O)c2)C2CCCC1CN(CC1(O)Cc3ccccc3C1)C2` [Compound 73, 4-((1R,5S,9r)-3-((2-hydroxy-2,3-dihydro-1H-inden-2-yl)methyl)-9-methoxy-3-azabicyclo[3.3.1]nonan-9-yl)picolinamide hydrochloride], the EC50 on human μ opioid receptor is < 10 nM. The Ki at μ-receptor is < 1 nM.

Compound `COC1(c2ccnc(C(N)=O)c2)C2CCCC1CN(C1CCOC1)C2` [Compound 74, 4-((1R,5S,9r)-9-methoxy-3-(tetrahydrofuran-3-yl)-3-azabicyclo[3.3.1]nonan-9-yl)picolinamide hydrochloride] came in with an EC50 at human μ opioid receptor of 10 to 75 nM. Moreover, the Ki on μ-receptor lay in the range of 1 to 5 nM.

As to `COC1(c2cccc(C(N)=O)c2)C2CCCC1CN(Cc1cnn[nH]1)C2` [Compound 75, 3-((1R,5S,9r)-3-((1H-1,2,3-triazol-5-yl)methyl)-9-methoxy-3-azabicyclo[3.3.1]nonan-9-yl)benzamide hydrochloride], the EC50 at human μ opioid receptor was < 10 nM. Moreover, at μ-receptor, the Ki was < 1 nM.

At human μ opioid receptor, `COC1(c2ccnc(C(N)=O)c2)C2CCCC1CN(C(C)C)C2` [Compound 76, 4-((1R,5S,9r)-3-isopropyl-9-methoxy-3-azabicyclo[3.3.1]nonan-9-yl)picolinamide hydrochloride] displayed an EC50 of 10 to 75 nM. On μ-receptor, this compound had a Ki of 1 to 5 nM.

With `COC1(c2ccnc(C(N)=O)c2)C2CCCC1CN(C1CC3(CCC3)C1)C2` [Compound 77, 4-((1R,5S,9r)-9-methoxy-3-(spiro[3.3]heptan-2-yl)-3-azabicyclo[3.3.1]nonan-9-yl)picolinamide hydrochloride], the EC50 at human μ opioid receptor was < 10 nM. Moreover, on μ-receptor, the Ki was < 1 nM.

For the compound `COC1(c2ccnc(C(N)=O)c2)C2CCCC1CN([C@@H]1CCOC1)C2` (stereo partly drawn) [Compound 78, 4-((1R,5S,9s)-9-methoxy-3-((S)-tetrahydrofuran-3-yl)-3-azabicyclo[3.3.1]nonan-9-yl)picolinamide hydrochloride], at human μ opioid receptor, the EC50 was in the range of 10 to 75 nM. Also, on μ-receptor, the Ki lay within 1 to 5 nM.

In general, EC50 refers to the midpoint of the concentration-response curve. Low readings indicate higher potency in that assay, high ones lower potency in that assay. A word on the Ki: it is a measure of affinity in units of concentration, obtained from inhibition or displacement. High values mean weaker binding, low ones tighter binding.

These data come from US10604489B2, “Compounds for the treatment of pain” (priority 2018, dated 2020).
